According to article PMC9967789, “Green Drug Discovery: Novel Fragment Space from the Biomass-Derived Molecule Dihydrolevoglucosenone (Cyrene^TM)” (Molecules, 2023):
Blank lines part the entries; values can stand above or below the compound they belong to.

How the values were obtained:
[1] = Nephelometry solubility in HBSS buffer containing 1% DMSO; format: physicochemical; conditions: for concentration up to which no signs of precipitation or aggregation are shown: in triplo
Procedure: Nephelometry was performed using NEPHELOstar Plus equipment (BMG LABTECH, Ortenberg, Germany). Kaolin was used as the internal standard, and compounds were added to HBSS buffer as DMSO stock solution to a final concentration of 1% DMSO and a total volume of 200 μL. Precipitation or aggregation was considered significant when average values exceeded three times the standard deviation of the blanks. Blank values were omitted if they exceeded three times the standard deviation of the 24 blanks that were measured on each 96-well plate. All compounds were tested in triplo, and wells of suspected outliers were visually inspected before omitting any outliers. Data were processed in Prism version 8.0 (GraphPad, San Diego, CA, USA).

[2] = Incubation experiment: fragment integrity by 1H NMR in DMSO-d6; format: physicochemical; conditions: 10^−2 M in DMSO-d6, NMR, three weeks at room temperature or frozen
Procedure: (§1) LCMS studies: A 10 mM solution in DMSO was diluted with HBSS buffer to 0.10 mM. Fragment integrity was measured by LCMS at regular intervals (not shown) up to 20 d in the dark at rt, or after 20 d of freezing. NMR studies: A 10 mM solution in DMSO-d6 was prepared. Fragment integrity was measured with ^1H NMR analysis at regular intervals (not shown) up to 20 d in the dark at rt, or after 20 d of freezing.

[3] = Incubation experiment: fragment integrity by LCMS in HBSS buffer/1% DMSO; format: physicochemical; conditions: 10^−4 M in HBSS buffer/1% DMSO
Procedure: as §1

[4] = cited from earlier work
[5] = parameters: method as in doi:10.1021/acssuschemeng.6b02115; conditions: cited from earlier work

concentration up to which no signs of precipitation or aggregation are shown [1]: 1000 µM
Structure (SMILES): Cc1ccc(COC2CC[C@H]3CO[C@@H]2O3)cc1 (some centres unmarked) [Compound 5c]

concentration at which the precipitate/aggregate starts to form [1]: 10^−3 M
concentration up to which no signs of precipitation or aggregation are shown [1]: 320 µM
Structure (SMILES): O=C(Nc1ccc(Cl)cc1)OC1CC[C@H]2CO[C@@H]1O2 (some centres unmarked) [Compound 7c]

concentration up to which no signs of precipitation or aggregation are shown [1]: 3200 µM
Structure (SMILES): Cn1ccc(CNC2CC[C@H]3CO[C@@H]2O3)n1.O=C(O)CCC(=O)O (some centres unmarked) [Compound 8f]

decomposition in DMSO [2]: no significant decomposition
byproduct formed ([3]; three weeks at room temperature): ca. 2.5%
Structure (SMILES): Clc1cccc(Cl)c1CNC1CC[C@H]2CO[C@@H]1O2 (some centres unmarked) [Compound 8h]

decomposition in DMSO [2]: no significant decomposition
reactivity on incubation in buffer ([3]; three weeks at room temperature or frozen): no or only minor reactivity
Structure (SMILES): COc1ccc(C(=O)NC2CC[C@H]3CO[C@@H]2O3)cc1 (some centres unmarked) [Compound 9h]

concentration up to which no signs of precipitation or aggregation are shown [1]: 1000 µM
Structure (SMILES): O=C(NC1CC[C@H]2CO[C@@H]1O2)c1cccs1 (some centres unmarked) [Compound 9p]

concentration up to which no signs of precipitation or aggregation are shown [1]: 320 µM
Structure (SMILES): O=S(=O)(NC1CC[C@H]2CO[C@@H]1O2)C1CC1 (some centres unmarked) [Compound 12f]

Structure (SMILES): O=C1CC[C@H]2CO[C@@H]1O2 [Cyrene, dihydrolevoglucosenone]
water solubility [4]: highly water-soluble
toxicity [5]: low toxicity

Structure (SMILES): C1COC2(CCC3COC2O3)O1 (centres unmarked) [glycol acetal of Cyrene]
miscibility with water [4]: water-miscible

Structure (SMILES): O=C1CC2COC(C1)O2 (centres unmarked) [iso-Cyrene]
concentration of solutions obtained in water ([4]; water): 10000 µM
